US8088761B2, “Enzyme inhibitors” (Cancer Research Technology Limited, priority 2005, dated 2012)
Read-outs that look alike come from different tables or passages of the source.

Columns and labels:
HCT116 cells = assay: Cell viability assay (MTT) in HCT116 cell line; type: cell-based; conditions: Homo sapiens, HCT-116, 72 hrs, IC50 range, read-out: HCT116 cell growth inhibition
Summary of the method: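 MTT read-out (4 hrs, 37 °C, DMSO extraction) following 72 hrs of treatment with 0-50 μM Aurora inhibitor. HCT116 cells were plated a day earlier and tested in triplicate; IC50 derived from the curve.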

Aurora-A = target: T1, Aurora-A (Homo sapiens, UniProt O14965); assay: Flashplate Aurora A enzyme inhibition assay; type: biochemical; conditions: read-out: Aurora-A inhibition
T1 sequence (O14965 1-403): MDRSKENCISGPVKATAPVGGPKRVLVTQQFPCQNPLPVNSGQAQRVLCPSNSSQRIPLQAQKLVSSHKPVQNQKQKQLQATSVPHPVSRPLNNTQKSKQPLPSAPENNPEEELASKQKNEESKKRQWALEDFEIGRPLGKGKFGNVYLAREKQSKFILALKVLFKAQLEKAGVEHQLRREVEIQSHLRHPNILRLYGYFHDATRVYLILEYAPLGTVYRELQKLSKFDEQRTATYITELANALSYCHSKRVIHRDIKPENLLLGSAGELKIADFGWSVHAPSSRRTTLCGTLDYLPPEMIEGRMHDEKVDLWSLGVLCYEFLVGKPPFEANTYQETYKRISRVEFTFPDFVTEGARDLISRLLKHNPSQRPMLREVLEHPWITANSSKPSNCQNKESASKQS
Summary of the method: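 This is a radiometric Flashplate format: plates were precoated with DTT, and compound (in 2% DMSO) was mixed with kinase buffer (pH 7.5 Tris, MgCl2, NaCl) containing 1 mM MBP, 20 μM ATP and ^33P-ATP. The reaction was started with 250 ng Aurora-A per well and incubated 2 h at RT. It was then stopped by 10 mM sodium pyrophosphate washing, and plates were scintillation-counted.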

COc1ccc(-c2nc3c(N4CCN(Cc5ccc(F)cc5)CC4)c(Br)cnc3[nH]2)cc1 [Example 147, 6-Bromo-7-(4-(4-fluorobenzyl)piperazin-1-yl)-2-(4-methoxyphenyl)-3H-imidazo[4,5-b]pyridine]
IC50 (HCT116 cells): 2 to 50 µM | IC50 (Aurora-A; Flashplate assay, IC50 range): < 0.5 µM

COc1ccc(-c2nc3c(N4CCN(CC5CCC5)CC4)c(Br)cnc3[nH]2)cc1 [Example 149, 6-Bromo-7-(4-(cyclobutylmethyl)piperazin-1-yl)-2-(4-methoxyphenyl)-3H-imidazo[4,5-b]pyridine]
IC50 (HCT116 cells): < 0.5 µM | IC50 (Aurora-A; Flashplate assay, IC50 range): < 0.5 µM

COc1ccc(-c2nc3c(N4CCN(CC5CC5)CC4)c(Br)cnc3[nH]2)cc1 [Example 73, 6-Bromo-7-(4-cyclopropylmethyl-piperazin-1-yl)-2-(4-methoxy-phenyl)-3H-imidazo[4,5-b]pyridine]
IC50 (HCT116 cells): 0.5 to 2 µM | IC50 (Aurora-A; Flashplate assay, IC50 range): 0.5 to 2 µM

Brc1cnc2[nH]c(-c3ccc(CN4CCOCC4)cc3)nc2c1N1CCN(Cc2nccs2)CC1 [Example 152, 4-(4-(6-Bromo-7-(4-(thiazol-2-ylmethyl)piperazin-1-yl)-3H-imidazo[4,5-b]pyridin-2-yl)benzyl)morpholine]
IC50 (HCT116 cells): 0.5 to 2 µM | IC50 (Aurora-A; Flashplate assay, IC50 range): < 0.5 µM

Brc1cnc2[nH]c(-c3ccc(OCCN4CCOCC4)cc3)nc2c1N1CCN(Cc2ccncc2)CC1 [Example 82, 6-Bromo-2-[4-(2-morpholin-4-yl-ethoxy)-phenyl]-7-(4-pyridin-4-ylmethyl-piperazin-1-yl)-3H-imidazo[4,5-b]pyridine]
IC50 (HCT116 cells): < 0.5 µM | IC50 (Aurora-A; Flashplate assay, IC50 range): < 0.5 µM

CC(c1ccncc1)N1CCN(c2c(Br)cnc3[nH]c(-c4cccc(CN5CCN(C)CC5)c4)nc23)CC1 (stereo not drawn) [Example 95, 6-Bromo-2-(3-((4-methylpiperazin-1-yl)methyl)phenyl)-7-(4-(1-(pyridin-4-yl)ethyl)piperazin-1-yl)-3H-imidazo[4,5-b]pyridine]
IC50 (HCT116 cells): 0.5 to 2 µM | IC50 (Aurora-A; Flashplate assay, IC50 range): < 0.5 µM

COc1ccc(-c2nc3c(N4CCN(Cc5cscn5)CC4)c(Br)cnc3[nH]2)cc1 [Example 154, 4-((4-(6-Bromo-2-(4-methoxyphenyl)-3H-imidazo[4,5-b]pyridin-7-yl)piperazin-1-yl)methyl)thiazole]
IC50 (HCT116 cells): < 0.5 µM | IC50 (Aurora-A): < 0.5 µM

Brc1cnc2[nH]c(-c3ccc(CN4CCOCC4)cc3)nc2c1N1CCN(Cc2cccc3c2OCO3)CC1 [Example 120, 4-(4-(7-(4-(Benzo[d][1,3]dioxol-4-ylmethyl)piperazin-1-yl)-6-bromo-3H-imidazo[4,5-b]pyridin-2-yl)benzyl)morpholine]
IC50 (HCT116 cells): 2 to 50 µM | IC50 (Aurora-A; Flashplate assay, IC50 range): < 0.5 µM

O=C(CN1CCN(c2c(Cl)cnc3[nH]c(-c4ccc(Cn5cccn5)cc4)nc23)CC1)Nc1nccs1 [Example 84, 2-(4-(2-(4-((1H-Pyrazol-1-yl)methyl)phenyl)-6-chloro-3H-imidazo[4,5-b]pyridin-7-yl)piperazin-1-yl)-N-(thiazol-2-yl)acetamide]
IC50 (HCT116 cells): < 0.5 µM | IC50 (Aurora-A; Flashplate assay, IC50 range): < 0.5 µM

COc1cccc(-c2nc3c(N4CCN(Cc5cc(C)on5)CC4)c(Br)cnc3[nH]2)c1 [Example 81, 6-Bromo-2-(3-methoxy-phenyl)-7-[4-(5-methyl-isoxazol-3-ylmethyl)-piperazin-1-yl]-3H-imidazo[4,5-b]pyridine]
IC50 (HCT116 cells): 0.5 to 2 µM | IC50 (Aurora-A; Flashplate assay, IC50 range): < 0.5 µM

CC(C)(C)OC(=O)NCc1nc2c(N3CCN(Cc4cccnc4)CC3)c(Br)cnc2[nH]1 [Example 99, tert-Butyl (6-bromo-7-(4-(pyridin-3-ylmethyl)piperazin-1-yl)-3H-imidazo[4,5-b]pyridin-2-yl)methylcarbamate]
IC50 (HCT116 cells): 2 to 50 µM | IC50 (Aurora-A; Flashplate assay, IC50 range): 2 to 10 µM

NCc1cccc(-c2nc3c(N4CCN(Cc5cccnc5)CC4)c(Br)cnc3[nH]2)c1 [Example 92, (3-(6-Bromo-7-(4-(pyridin-3-ylmethyl)piperazin-1-yl)-3H-imidazo[4,5-b]pyridin-2-yl)phenyl)methanamine]
IC50 (HCT116 cells): 0.5 to 2 µM | IC50 (Aurora-A; Flashplate assay, IC50 range): < 0.5 µM
